# Measurements as given in patent publication US9649324B2, “Use of tylvalosin as antiviral agent” (ECO ANIMAL HEALTH LIMITED, priority 2006, dated 2017).
# What was measured:
# [1] = cited from earlier work
# [2] = orally administered, in vivo (Okamoto et al., 1981); cited from earlier work
# PRRSV strain, VR2385 = assay: Efficacy of tylvalosin in feed for the control of PRRSV in challenged pigs (Example 14); format: in vivo, pig; conditions: for Mean maximum respiratory score: score 0-6
# endosomal pH = assay: Acridine orange assay of endosomal pH (Example 13); format: cell-based
# Experimental: Acridine orange is a dye that causes cells to fluoresce green with the exception of acidic compartments (such as endosomes) that appear red—due to the protonation of the dye and quenching of the green fluorescence. A substance that raises the endosomal pH will prevent the appearance of the red fluorescence. The effect of Aivlosin® and other macrolide antibiotics on a the staining of endosomes by acridine orange in number of cells lines was determined (see FIG. 19). An area of cells grown on a glass coverslip is first selected using a DAPI stain. […] This selection procedure helps reduce any bias in the results. The green and red filters on the epifluorescence microscope were then used to examine about 20 cells. The number of red spots (endosome vesicles) in was determined. The average number of Acridine orange stained endosomes was counted.
# [3] = test system: human Udorn strain of influenza; assay: Influenza infection of MDCK cells, immunofluorescence (Example 4), strain Udorn; format: cell-based; conditions: 1 μg/ml, 4 h pretreatment, moi 10, fixed 4 h post infection
# [4] = test system: equine arteritis virus (EAV); assay: Effect on equine arteritis virus infection (Example 6); format: cell-based
# Experimental: Experiments were carried out to determine whether tylvalosin has an effect on equine arteritis virus (EAV).
# LLC-PK1 cells = assay: Intracellular accumulation in pig kidney epithelial cells; format: in vitro ADME; conditions: LLC-PK1, 10 μg/mL
# Experimental: LLC-PKI cells in 6 cm^2 plastic tissue culture dishes were incubated with 10 μg/mL of the different macrolides. Cells and medium were harvested as described above at 30, 75 and 120 min.
# All the supernatant and cell samples were transported frozen (at approximately −20° C.) to York Bioanalytical Solutions (York, England) for analysis. Briefly, 0.25 g of buffer (RPMI medium containing 10% FCS) was weighed into a polypropylene tube. A 50 μL volume of the appropriate working solution was added to the quality control (QC) samples. Methanol (50 μL) was added to each blank sample used for preparation of calibration standards, recovery samples and reagent blanks. A 2.5 mL volume of 0.1 M phosphate buffer was added to each sample, vortex mixed for approximately 1 min and then centrifuged at 3220×g for 10 min at 4° C.
# For the liquid-liquid clean-up phase, an aliquot (100 μL) of the supernatant was transferred to a polypropylene tube. The pH was adjusted to pH 8-8.5 by the addition of 0.1 M NaOH, and vortex mixed. Ethyl acetate (5 mL) was added and after capping, the whole mixture was shaken for 10 min and then centrifuged at 3220×g for 10 min at 4° C.
# Ammonium acetate (20 mM; pH native)—formic acid, 1000:3, v/v (100 μL) was added to each well in a 2 mL polypropylene collection plate. An aliquot of the ethyl acetate mixture (100 μL) was transferred to the polypropylene collection plate and evaporated under nitrogen (40° C.) until the ethyl acetate was fully evaporated whilst the ammonium acetate remained. Methanol (100 μL) was added to each well, excluding the calibration standards.
# To each well containing a calibration standard, 100 μL of the appropriate calibration working solution was added. Samples were then vortex mixed for at least 10 min and submitted for liquid chromatography with tandem mass spectrometric analysis. The method stated was applicable to the samples of media (and the calibration standards and quality control samples).
# For the cells, the sample tubes were weighed, and 100 μL of acetonitrile was added. The samples were vortex mixed for 10 sec, then centrifuged at 10285×g at 4° C. for 5 min. The sample was transferred to a polypropylene tube. The original sample tube was washed with 0.1 M phosphate buffer (1 mL). This was transferred to the polypropylene tube. A second wash of 1 mL was made, then a final wash of 0.5 mL. The polypropylene tube was now at the same stage as the end of the liquid extraction, but with the cells present rather than media. This was then taken through the sample preparation as described above. The original sample tubes were allowed to dry (i.e. any remaining solvent evaporated off) and were then reweighed to determine the weight of cells in the sample, to allow the concentration per gram of cells to be determined.
# PRRSV = assay: Inhibitors of PRRSV infection added at various times pre and post infection (Example 7); format: cell-based
# [5] = Group 1, 100 ppm in feed, Trial Day 17
# [6] = Group 1, 100 ppm in feed, Trial Day 28
# [7] = Group 2, 200 ppm in feed, Trial Day 17
# [8] = Group 2, 200 ppm in feed, Trial Day 28
# [9] = Group 3, 600 ppm in feed, Trial Day 17
# [10] = Group 3, 600 ppm in feed, Trial Day 28
# [11] = added 2 or 4 hours after infection
compound,measurement,setting,value
"CCC1OC(=O)CC(OC(C)=O)C(C)C(OC2OC(C)C(OC3CC(C)(O)C(OC(=O)CC(C)C)C(C)O3)C(N(C)C)C2O)C(CC=O)CC(C)C(=O)C=CC(C)=CC1COC1OC(C)C(O)C(OC)C1OC (centres unmarked) [tylvalosin, 3-O acetyl-4″-O-isovaleryltylosin]",pKa,[1],7.6
same,blood levels,[2],higher blood levels than tylosin
same,severity of macroscopic pneumonia,"PRRSV strain, VR2385; 100, 200, 600 ppm in feed versus non-treated controls",No differences
same,Mean average rectal temperature,"PRRSV strain, VR2385; Group 1, 100 ppm in feed",103.6 ± 0.1
same,Mean maximum rectal temperature,"PRRSV strain, VR2385; Group 1, 100 ppm in feed",104.5 ± 0.2 A
same,Mean microscopic PRRSV lung lesion score,"PRRSV strain, VR2385; Group 1, 100 ppm in feed, Necropsy 1 (Trial Day 17, 10 days post infection)",0.2 ± 0.2 A
same,Mean microscopic PRRSV lung lesion score,"PRRSV strain, VR2385; Group 1, 100 ppm in feed, Necropsy 2 (Trial Day 28, 21 days post infection)",2.1 ± 0.4
same,Average daily gain,"PRRSV strain, VR2385; Group 1, 100 ppm in feed, Trial Day 7",1.57 ± .09 lbs
same,Mean real-time RT-PCR (PRRSV RNA copy numbers in serum),"PRRSV strain, VR2385; Group 1, 100 ppm in feed, Trial Day 10","15,289.88 B, C"
same,Average daily gain,"PRRSV strain, VR2385; Group 1, 100 ppm in feed, Trial Day 14",1.5 ± .05 lbs
same,Average daily gain,"PRRSV strain, VR2385; [5]",1.59 ± .05 A lbs
same,Mean real-time RT-PCR (PRRSV RNA copy numbers in serum),"PRRSV strain, VR2385; [5]","95,315.72"
same,Mean real-time RT-PCR (PRRSV RNA copy numbers in serum),"PRRSV strain, VR2385; Group 1, 100 ppm in feed, Trial Day 21","36,451.13"
same,Average daily gain,"PRRSV strain, VR2385; [6]",1.42 ± .05 lbs
same,Mean real-time RT-PCR (PRRSV RNA copy numbers in serum),"PRRSV strain, VR2385; [6]","5,301.63"
same,Mean maximum respiratory score,"PRRSV strain, VR2385; Group 1, 100 ppm in feed",0.5 ± 0.1 A*
same,Mean average rectal temperature,"PRRSV strain, VR2385; Group 2, 200 ppm in feed",103.7 ± 0.1
same,Mean maximum rectal temperature,"PRRSV strain, VR2385; Group 2, 200 ppm in feed",104.7 ± 0.2 A
same,Mean microscopic PRRSV lung lesion score,"PRRSV strain, VR2385; Group 2, 200 ppm in feed, Necropsy 1 (Trial Day 17, 10 days post infection)",2.0 ± 0.3 B
same,Mean microscopic PRRSV lung lesion score,"PRRSV strain, VR2385; Group 2, 200 ppm in feed, Necropsy 2 (Trial Day 28, 21 days post infection)",1.9 ± 0.3
same,Average daily gain,"PRRSV strain, VR2385; Group 2, 200 ppm in feed, Trial Day 7",1.52 ± .10 lbs
same,Mean real-time RT-PCR (PRRSV RNA copy numbers in serum),"PRRSV strain, VR2385; Group 2, 200 ppm in feed, Trial Day 10","19,336.8 C"
same,Average daily gain,"PRRSV strain, VR2385; Group 2, 200 ppm in feed, Trial Day 14",1.45 ± .06 lbs
same,Average daily gain,"PRRSV strain, VR2385; [7]","1.59 ± .07 A, B lbs"
same,Mean real-time RT-PCR (PRRSV RNA copy numbers in serum),"PRRSV strain, VR2385; [7]","78,804.81"
same,Mean real-time RT-PCR (PRRSV RNA copy numbers in serum),"PRRSV strain, VR2385; Group 2, 200 ppm in feed, Trial Day 21","18,724.88"
same,Average daily gain,"PRRSV strain, VR2385; [8]",1.53 ± .07 lbs
same,Mean real-time RT-PCR (PRRSV RNA copy numbers in serum),"PRRSV strain, VR2385; [8]",892.36
same,Mean maximum respiratory score,"PRRSV strain, VR2385; Group 2, 200 ppm in feed",0.6 ± 0.2 A
same,Mean average rectal temperature,"PRRSV strain, VR2385; Group 3, 600 ppm in feed",103.8 ± 0.1
same,Mean maximum rectal temperature,"PRRSV strain, VR2385; Group 3, 600 ppm in feed",105.8 ± 0.3 B
same,Mean microscopic PRRSV lung lesion score,"PRRSV strain, VR2385; Group 3, 600 ppm in feed, Necropsy 1 (Trial Day 17, 10 days post infection)",2.0 ± 0.3 B
same,Mean microscopic PRRSV lung lesion score,"PRRSV strain, VR2385; Group 3, 600 ppm in feed, Necropsy 2 (Trial Day 28, 21 days post infection)",1.5 ± 0.3
same,Average daily gain,"PRRSV strain, VR2385; Group 3, 600 ppm in feed, Trial Day 7",1.83 + .16 lbs
same,Mean real-time RT-PCR (PRRSV RNA copy numbers in serum),"PRRSV strain, VR2385; Group 3, 600 ppm in feed, Trial Day 10","54,487.19 A, B"
same,Average daily gain,"PRRSV strain, VR2385; Group 3, 600 ppm in feed, Trial Day 14",1.47 ± .06 lbs
same,Average daily gain,"PRRSV strain, VR2385; [9]","1.44 ± .04 A, B lbs"
same,Mean real-time RT-PCR (PRRSV RNA copy numbers in serum),"PRRSV strain, VR2385; [9]","146,655.4"
same,Mean real-time RT-PCR (PRRSV RNA copy numbers in serum),"PRRSV strain, VR2385; Group 3, 600 ppm in feed, Trial Day 21","30,260.69"
same,Average daily gain,"PRRSV strain, VR2385; [10]",1.47 ± .06 lbs
same,Mean real-time RT-PCR (PRRSV RNA copy numbers in serum),"PRRSV strain, VR2385; [10]","1,292.31"
same,Mean maximum respiratory score,"PRRSV strain, VR2385; Group 3, 600 ppm in feed",1.8 ± 0.3 B
same,clinical disease and viremia associated with PRRSV infection,"PRRSV strain, VR2385; lower doses (in feed)",appears to reduce clinical disease and viremia
same,effect on raising the pH in the endosomes,"endosomal pH; acridine orange stained endosomes, any cell line",raises the pH in endosomes
same,effect on endosomal pH,endosomal pH; epithelial cells,greater effects than tilmicosin
same,inhibition of infection of MDCK cells,[3],76%
same,EAV infection,[4],not blocked
same,average intracellular concentration,LLC-PK1 cells; 75 min,53.95 μg/mg cells
same,intracellular:extracellular ratio,LLC-PK1 cells; 120 min,8.9
same,PRRSV spread,PRRSV; [11],inhibited
same,initial PRRSV infection (initial site of infection),PRRSV; [11],inhibited
same,initial PRRSV infection,PRRSV; added 4 hours before infection,inhibited
same,initial PRRSV infection,PRRSV; added at the time of infection,inhibited
